Measurements: paper PMC4277420, “Assessment of [^125I]WYE-230949 as a Novel Histamine H3 Receptor Radiopharmaceutical” (PLoS ONE, 2014)
Like-named read-outs stand apart in the source and are kept apart here.

Tests used:
[1] = target: T1, rat histamine H3 receptor (Rattus norvegicus, UniProt Q9QYN8); settings: rat striatum; cited from earlier work
T1 construct: from tissue; host or cells: whole brain of male Sprague-Dawley rats, homogenate pellet

[2] = cited from earlier work
[3] = parameters: method as in PMID 19910432; settings: porcine brain, 20 min post injection; cited from earlier work
[4] = cited from earlier work; remark: listed apart in the source
[5] = cited from earlier work; remark: listed apart in the source
[6] = target: rat histamine H3 receptors; parameters: method as in earlier work; settings: rat histamine H3 receptor; cited from earlier work
[7] = target: human histamine H3 receptors; parameters: method as in earlier work; settings: human histamine H3 receptor; cited from earlier work
[8] = parameters: method as in PMID 16934699, PMID 17998102; settings: cited from earlier work
[9] = parameters: method as in PMID 16934699; settings: rats, 5 min post injection; cited from earlier work
[10] = target: T1, rat histamine H3 receptor; experiment: In vitro saturation radioligand binding to rat brain homogenates; settings: whole rat brain homogenates, one-site binding model, n = 8
Method: Animals (male Sprague-Dawley rats; Harlan, UK) were killed by cervical dislocation. Whole brains were immediately excised and placed into ice-cold Tris-HCl buffer (Tris […], pH 7.4; EDTA 5 mM), homogenised and centrifuged at approx 40,000 g for 10 min at 4°C (Beckman J2-21M/E). The pellet was resuspended in 25 ml of buffer and centrifuged as previously, then the final pellet was resuspended in 10 ml of ice cold Tris buffer and stored at −50°C until required. Protein content was analysed using Bio-Rad reagent; absorbance was read on a spectrophotometer at 562 nm. [^125I]WYE230949 binding assays were carried out in a final incubation volume of 500 µl containing Tris-HCl buffer (Tris […], pH 7.4; EDTA 5 mM), brain homogenates (1.47 to 2.27 mg/ml of protein) and [^125I]WYE230949 (0.04–102 nM). Non-specific binding was defined in the presence of 10 µM iodophenpropit. Samples were incubated at 30°C for 30 min, then filtered rapidly through Whatman GF/B filters (pre-treated with 0.3% polyethylenimine; Aldrich, UK) using a Brandel M24R cell harvester and the filters washed with 3×4 ml ice-cold Tris buffer. Radioactivity on the filters was determined by liquid scintillation counting a minimum of 48 h after filtration. All assays were performed in triplicate. Specific binding was determined by subtracting non-specific binding from total binding at each concentration; Kd and Bmax values derived using GraphPad Prism (version 4.03), and expressed as mean ±SEM of the triplicate assays.

T1 sequence (Q9QYN8 whole entry): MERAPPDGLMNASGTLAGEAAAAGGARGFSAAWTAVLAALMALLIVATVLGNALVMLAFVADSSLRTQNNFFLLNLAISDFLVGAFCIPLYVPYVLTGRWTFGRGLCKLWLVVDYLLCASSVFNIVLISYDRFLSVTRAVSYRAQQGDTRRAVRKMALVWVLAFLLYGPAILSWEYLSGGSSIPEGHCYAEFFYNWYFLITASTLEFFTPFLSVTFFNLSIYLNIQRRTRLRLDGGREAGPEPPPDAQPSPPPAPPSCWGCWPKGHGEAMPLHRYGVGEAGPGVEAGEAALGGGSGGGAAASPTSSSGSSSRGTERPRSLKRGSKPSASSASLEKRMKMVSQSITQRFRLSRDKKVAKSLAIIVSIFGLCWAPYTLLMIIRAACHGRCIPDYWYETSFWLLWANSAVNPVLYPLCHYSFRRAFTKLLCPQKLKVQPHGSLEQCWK

For [123I]c1ccc(COCCCc2cnc[nH]2)cc1 [[^123I]iodoproxyfan], the Bmax [1] is given as 78 fmol/mg of protein and the peak brain uptake [2] is given as roughly 1.5 %ID/g.

In the case of [11CH3]NC(=O)c1ccc(Oc2ccc3c(c2)CCN(C2CCC2)CC3)nc1 [[^11C]GSK189254], the brain uptake [3] is given as 9.0 %ID/L, the LogD [4] is given as 1.7 and the “parent remaining in plasma” value ([5]; 30 minutes post injection) is given as 58%. For the same molecule, the “parent remaining in plasma” value ([5]; after 90 min) was 55%.

In the case of O=C(c1ccc(Cn2cnc3cccc(I)c32)cc1)N1CC[C@H](N2CCCC2)C1 [WYE-230949], the Ki [6] is given as 5.7 nM and the Ki [7] is given as 0.3 nM.

For C(#Cc1cccc([11CH2]N2CCOCC2)c1)CCN1CCCCC1 [[^11C]JNJ-10181457, 4-[3-(4-piperidin-1-yl-but-1-ynyl)-[^11C]benzyl]-morpholine], the “parent remaining in the brain” value ([8]; 30 min post injection) is listed as “greater than 80%” and the brain uptake [9] is listed as 1.38 %ID/g.

With O=C(c1ccc(Cn2cnc3cccc(I)c32)cc1)N1CC[C@H](N2CCCC2)C1 [[^125I]WYE-230949] the Kd [10] was 6.9 nM.

In the case of [18F]c1ccc(COCCCc2cnc[nH]2)cc1 [[^18F]fluoroproxyfan], the “parent remaining in the brain” value ([8]; 30 min post injection) is given as 94%, the “parent remaining in the brain” value ([8]; 120 min post injection) is given as 68% and the “parent remaining in plasma” value ([5]; 30 minutes post injection) is given as 43%.
